This passage reports EC50 results from patent publication US7635716B2, “Substituted cyclopentanes or cyclopentanones as therapeutic agents” (Allergan, Inc., priority 2005, dated 2009).

What all share (test): FLIPR calcium signal, HEK-293(EBNA) cells
Type in all cases: cell-based

For one assay, the target named is T1, hEP1 (Homo sapiens, UniProt P34995).
T1 construct: expressed in transfected cells; host or cells: HEK-293(EBNA) cells
T1 sequence (P34995 1-402): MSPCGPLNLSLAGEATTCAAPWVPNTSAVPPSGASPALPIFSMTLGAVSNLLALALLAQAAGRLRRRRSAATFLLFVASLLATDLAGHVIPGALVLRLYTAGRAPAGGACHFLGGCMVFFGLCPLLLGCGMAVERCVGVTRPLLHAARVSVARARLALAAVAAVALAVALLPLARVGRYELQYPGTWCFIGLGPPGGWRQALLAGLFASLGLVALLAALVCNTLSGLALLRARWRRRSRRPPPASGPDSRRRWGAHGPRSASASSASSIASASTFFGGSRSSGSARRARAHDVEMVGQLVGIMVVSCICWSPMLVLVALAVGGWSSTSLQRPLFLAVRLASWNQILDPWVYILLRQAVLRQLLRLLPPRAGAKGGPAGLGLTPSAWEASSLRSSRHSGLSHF

For the next assay, the target named is T2, hEP4/Gqs5 (Homo sapiens, UniProt P35408).
T2 construct: expressed in transfected cells; host or cells: HEK-293(EBNA) cells
T2 sequence (P35408 whole entry): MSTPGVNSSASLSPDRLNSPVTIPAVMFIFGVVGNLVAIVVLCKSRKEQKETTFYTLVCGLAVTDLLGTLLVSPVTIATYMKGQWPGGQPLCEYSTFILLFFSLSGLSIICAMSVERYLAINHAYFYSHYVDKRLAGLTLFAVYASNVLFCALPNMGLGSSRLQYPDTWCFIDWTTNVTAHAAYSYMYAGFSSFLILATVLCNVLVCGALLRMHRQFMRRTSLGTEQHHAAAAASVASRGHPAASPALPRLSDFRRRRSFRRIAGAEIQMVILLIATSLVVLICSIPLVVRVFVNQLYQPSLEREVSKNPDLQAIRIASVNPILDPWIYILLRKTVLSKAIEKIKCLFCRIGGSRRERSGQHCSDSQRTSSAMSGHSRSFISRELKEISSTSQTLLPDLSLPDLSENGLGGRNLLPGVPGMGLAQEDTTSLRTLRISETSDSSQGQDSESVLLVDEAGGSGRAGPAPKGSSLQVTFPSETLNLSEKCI
The essentials: (§1)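 Peak Fluo-4 fluorescence (2 µM dye loading, 45 min) was recorded in HEK-293(EBNA) cells stably expressing each human receptor, in HBSS-HEPES pH 7.4 at 37 °C. Signals were expressed relative to buffer and standard agonist controls: PGE2 (EP2, EP4), PGF2 (FP), carbacyclin (IP). Compounds were tested at 10^−5 M or from 10^−5 to 10^−11 M, in duplicate, n≧3.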

The target in the next assay is T3, hEP2/Gqs5 (Homo sapiens, UniProt P43116).
T3 construct: expressed in transfected cells; host or cells: HEK-293(EBNA) cells
T3 sequence (P43116 whole entry): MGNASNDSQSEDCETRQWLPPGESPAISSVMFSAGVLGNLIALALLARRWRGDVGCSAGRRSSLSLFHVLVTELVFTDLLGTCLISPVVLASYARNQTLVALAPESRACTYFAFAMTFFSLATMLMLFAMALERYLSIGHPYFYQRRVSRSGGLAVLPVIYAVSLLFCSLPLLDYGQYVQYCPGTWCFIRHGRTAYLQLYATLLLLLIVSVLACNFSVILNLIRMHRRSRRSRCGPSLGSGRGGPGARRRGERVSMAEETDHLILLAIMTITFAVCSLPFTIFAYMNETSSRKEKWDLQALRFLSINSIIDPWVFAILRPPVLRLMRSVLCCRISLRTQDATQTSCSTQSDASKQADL
The essentials: as §1

The next assay addresses T4, hTP (Homo sapiens, UniProt P21731).
T4 construct: expressed in transfected cells; host or cells: HEK-293(EBNA) cells
T4 sequence (P21731 1-343): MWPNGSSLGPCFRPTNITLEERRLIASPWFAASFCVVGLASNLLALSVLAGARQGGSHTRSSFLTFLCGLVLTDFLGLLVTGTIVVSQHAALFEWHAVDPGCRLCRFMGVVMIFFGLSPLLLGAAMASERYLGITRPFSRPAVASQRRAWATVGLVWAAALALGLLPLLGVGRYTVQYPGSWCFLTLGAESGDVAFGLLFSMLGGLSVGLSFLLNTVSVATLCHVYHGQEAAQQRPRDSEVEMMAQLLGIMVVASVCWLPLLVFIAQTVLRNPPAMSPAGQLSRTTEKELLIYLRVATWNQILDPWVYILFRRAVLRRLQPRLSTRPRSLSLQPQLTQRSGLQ

For a further assay, the target named is T5, hEP3A/Gqi5 (Homo sapiens, UniProt P43115).
T5 construct: expressed in transfected cells; host or cells: HEK-293(EBNA) cells
T5 sequence (P43115 1-390): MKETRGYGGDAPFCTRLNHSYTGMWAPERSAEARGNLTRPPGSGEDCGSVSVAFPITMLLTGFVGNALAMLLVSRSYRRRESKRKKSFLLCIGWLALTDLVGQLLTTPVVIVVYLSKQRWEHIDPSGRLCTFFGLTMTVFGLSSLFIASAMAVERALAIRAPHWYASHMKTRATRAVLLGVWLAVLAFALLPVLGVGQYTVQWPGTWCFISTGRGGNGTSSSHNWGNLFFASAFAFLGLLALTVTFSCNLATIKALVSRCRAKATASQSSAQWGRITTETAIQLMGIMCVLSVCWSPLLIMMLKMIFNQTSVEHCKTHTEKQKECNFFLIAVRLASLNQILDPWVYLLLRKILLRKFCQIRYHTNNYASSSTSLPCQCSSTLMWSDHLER

The mark [1] stands for this setting: Table 1, first part, triplicate, read-out: functional data (EC50) hEP1.
The mark [2] stands for this setting: Table 1, second part, quantity not given, values match functional data (EC50) of first part, read-out: Other Receptors hEP1.
The mark [3] stands for this setting: Table 1, first part, triplicate, read-out: functional data (EC50) hEP4.
Where [4] appears, read: Table 1, first part, triplicate, read-out: functional data (EC50) hEP2.
Where [5] appears, read: Table 1, first part, triplicate, read-out: functional data (EC50) hTP.
Where [6] appears, read: Table 1, second part, quantity not given, values match functional data (EC50) of first part, read-out: Other Receptors hTP.
[7] abbreviates: Table 1, first part, data represents a single experiment, read-out: functional data (EC50) hEP3A*.
The mark [8] stands for this setting: Table 1, second part, quantity not given, values match functional data (EC50) of first part, read-out: Other Receptors hEP3.
Setting [9] is: Table 1, second part, read-out: hEP4 flipr EC50.
The mark [10] stands for this setting: Table 1, second part, read-out: hEP2 flipr EC50.

Like-named read-outs stand apart in the source and are kept apart here.

For `O=C(O)CCCCCC[C@@H]1[C@@H](COc2cc(Cl)cc(Cl)c2)[C@H](O)C[C@H]1Cl` [Example 14, 7-[(1R,2S,3R,5R)-5-Chloro-2-(3,5-dichloro-phenoxymethyl)-3-hydroxy-cyclopentyl]-heptanoic acid], the EC50 is greater than 10 µM at hEP1 (setting [1]); greater than 10 µM on hEP1 (setting [2]); 0.152 µM at hEP4/Gqs5 (setting [3]); 0.024 µM on hEP2/Gqs5 (setting [4]); greater than 10 µM on hTP (setting [5]); greater than 10 µM at hTP (setting [6]). Moreover, the EC50 on hEP3A/Gqi5 (setting [7]) and on hEP3A/Gqi5 (setting [8]) was 3.49 µM throughout.
`O=C(O)CCCCCC[C@H]1C(=O)CC[C@@H]1COc1ccccc1` [Example 6, 7-((1R,5S)-2-Oxo-5-phenoxymethyl-cyclopentyl)-heptanoic acid]: the EC50 at hEP4/Gqs5 (setting [3]) is 7.88 µM; on hEP2/Gqs5 (setting [4]), 0.731 µM; at hTP (setting [5]), greater than 10 µM; on hTP (setting [6]) it was greater than 10 µM; at hEP3A/Gqi5 (setting [7]) it was 3.55 µM; on hEP3A/Gqi5 (setting [8]), 3.55 µM.
`O=C(O)CCC/C=C\C[C@@H]1[C@@H](COc2cc(Cl)cc(Cl)c2)[C@H](O)C[C@H]1Cl` [Example 12, (Z)-7-[(1R,2S,3R,5R)-5-Chloro-2-(3,5-dichloro-phenoxymethyl)-3-hydroxy-cyclopentyl]-hept-5-enoic acid]: the EC50 on hEP1 (setting [1]) is greater than 10 µM; at hEP1 (setting [2]), greater than 10 µM; at hEP4/Gqs5 (setting [3]) it was 0.048 µM; on hEP4/Gqs5 (setting [9]), 0.048 µM; at hEP2/Gqs5 (setting [4]), 0.0008 µM; on hEP2/Gqs5 (setting [10]), 0.0008 µM. The EC50 at hTP (setting [5]) is greater than 10 µM; on hTP (setting [6]), greater than 10 µM; on hEP3A/Gqi5 (setting [7]), 1.26 µM; at hEP3A/Gqi5 (setting [8]) it was 1.26 µM.
“(Z)-7-((1R,2S,3R)-3-Hydroxy-5-oxo-2-phenoxymethyl-cyclopentyl)-hept-5-enoic acid [Example 4]”: the EC50 is greater than 10 µM on hEP1 (setting [1]); greater than 10 µM at hEP4/Gqs5 (setting [3]); 0.36 µM on hEP4/Gqs5 (setting [9]); 5.15 µM on hEP2/Gqs5 (setting [4]); greater than 10 µM at hEP2/Gqs5 (setting [10]); greater than 10 µM on hTP (setting [5]). Also, the EC50 on hEP3A/Gqi5 (setting [7]) amounted to 18.5 µM.
As for `O=C(O)CCC/C=C\C[C@@H]1[C@@H](COc2ccccc2)[C@H](O)C[C@H]1Cl` [Example 8, (Z)-7-((1R,2S,3R,5R)-5-Chloro-3-hydroxy-2-phenoxymethyl-cyclopentyl)-hept-5-enoic acid], the EC50 is greater than 10 µM at hEP1 (setting [1]); greater than 10 µM on hEP1 (setting [2]); 3.2 µM on hEP4/Gqs5 (setting [3]); 0.23 µM on hEP2/Gqs5 (setting [4]); greater than 10 µM at hTP (setting [5]); greater than 10 µM on hTP (setting [6]). The EC50 at hEP3A/Gqi5 (setting [7]) and at hEP3A/Gqi5 (setting [8]) was 7.33 µM throughout.
For “(Z)-7-((1R,5S)-2-Oxo-5-phenoxymethyl-cyclopent-3-enyl)-hept-5-enoic acid [Example 3]”, the EC50 at hEP1 (setting [2]) was greater than 10 µM; on hEP4/Gqs5 (setting [3]), 0.36 µM; at hEP4/Gqs5 (setting [9]) it was greater than 10 µM; at hEP2/Gqs5 (setting [4]), greater than 10 µM; at hEP2/Gqs5 (setting [10]) it was 5.15 µM; on hTP (setting [6]), greater than 10 µM. Further, on hEP3A/Gqi5 (setting [8]), the EC50 came out at 18.5 µM.
Take `O=C(O)CCCCCC[C@@H]1[C@@H](COc2ccccc2)[C@H](O)C[C@H]1Cl` [Example 10, 7-((1R,2S,3R,5R)-5-Chloro-3-hydroxy-2-phenoxymethyl-cyclopentyl)-heptanoic acid]: the EC50 on hEP1 (setting [1]) is greater than 10 µM; on hEP1 (setting [2]), greater than 10 µM; on hEP4/Gqs5 (setting [3]) it was 7.21 µM; at hEP2/Gqs5 (setting [4]), 0.123 µM; on hTP (setting [5]), greater than 10 µM; at hTP (setting [6]) it was greater than 10 µM. Besides, the EC50 at hEP3A/Gqi5 (setting [7]) and at hEP3A/Gqi5 (setting [8]) was 3.51 µM each time.
